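Tested at 5 concentrations; 48 h exposure; 96-well plates; endpoints linearly interpolated, else capped at highest concentration. The concentration for 50% growth inhibition is given as GI50. The concentration for full growth arrest is given as TGI.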
Columns and labels:
Experiment in all cases: inhibition of tumour cell growth, NCI panel, 48 h
HOP-62 NSCLC = test system: HOP-62 NSCLC
OVCAR-8 ovarian = test system: OVCAR-8 ovarian
HCT-15 colon = test system: HCT-15 colon
ACHN renal = test system: ACHN renal
HCT-116 colon = test system: HCT-116 colon
UACC-62 melanoma = test system: UACC-62 melanoma
SF-539 CNS = test system: SF-539 CNS
HOP-92 NSCLC = test system: HOP-92 NSCLC
SNB-19 CNS = test system: SNB-19 CNS
LOX IMVI melanoma = test system: LOX IMVI melanoma
CAKI-1 renal = test system: CAKI-1 renal
RXF 393 renal = test system: RXF 393 renal
SNB-75 CNS = test system: SNB-75 CNS
MCF7 breast = test system: MCF7 breast
BT-549 breast = test system: BT-549 breast
MALME-3M melanoma = test system: MALME-3M melanoma
SK-OV-3 ovarian = test system: SK-OV-3 ovarian
HL-60(TB) leukemia = test system: HL-60(TB) leukemia
SK-MEL-2 melanoma = test system: SK-MEL-2 melanoma
OVCAR-5 ovarian = test system: OVCAR-5 ovarian
K-562 leukemia = test system: K-562 leukemia
MDA-MB-468 breast = test system: MDA-MB-468 breast
NCI-H23 lung = test system: NCI-H23 lung
SR leukemia = test system: SR leukemia
SN12C renal = test system: SN12C renal
HCC-2998 colon = test system: HCC-2998 colon
PC-3 prostate = test system: PC-3 prostate
CCRF-CEM leukemia = test system: CCRF-CEM leukemia
A498 renal = test system: A498 renal
MOLT-4 leukemia = test system: MOLT-4 leukemia
HT29 colon = test system: HT29 colon
DU-145 prostate = test system: DU-145 prostate
UACC-257 melanoma = test system: UACC-257 melanoma
SF-268 CNS = test system: SF-268 CNS
NCI-H522 lung = test system: NCI-H522 lung
NCI-H226 lung = test system: NCI-H226 lung
OVCAR-3 ovarian = test system: OVCAR-3 ovarian
MDA-MB-435 = test system: MDA-MB-435
NCI-H460 lung = test system: NCI-H460 lung
COLO 205 colon = test system: COLO 205 colon
RPMI-8226 leukemia = test system: RPMI-8226 leukemia
IGROV1 ovarian = test system: IGROV1 ovarian
OVCAR-4 ovarian = test system: OVCAR-4 ovarian
SF-295 CNS = test system: SF-295 CNS
KM12 colon = test system: KM12 colon
TK-10 renal = test system: TK-10 renal
SW-620 colon = test system: SW-620 colon
SK-MEL-5 melanoma = test system: SK-MEL-5 melanoma
EKVX NSCLC = test system: EKVX NSCLC
T-47D breast = test system: T-47D breast
MDA-MB-231 breast = test system: MDA-MB-231 breast
M14 melanoma = test system: M14 melanoma
U251 CNS = test system: U251 CNS
786-0 renal = test system: 786-0 renal
A549 NSCLC = test system: A549 NSCLC
HS 578T breast = test system: HS 578T breast
UO-31 renal = test system: UO-31 renal
SK-MEL-28 melanoma = test system: SK-MEL-28 melanoma

Work on `COc1ccccc1[C@H]1C(C(=O)c2ccc(O)cc2)C2(N[C@@H]1c1ccccc1)C(=O)Nc1ccc(Br)cc12` (stereo partly specified) yielded a GI50 (HOP-62 NSCLC) of 8.27 µM, a TGI (HOP-62 NSCLC) of 16.7 µM and a GI50 (OVCAR-8 ovarian) of 8.3 µM. For the same molecule, the TGI (OVCAR-8 ovarian) was 16.7 µM, the GI50 (HCT-15 colon) was 8.02 µM and the TGI (HCT-15 colon) was 18.1 µM. The GI50 (ACHN renal) was 7.72 µM, the TGI (ACHN renal) was 15 µM and the GI50 (HCT-116 colon) was 7.03 µM. The TGI (HCT-116 colon) was 15.4 µM, the GI50 (UACC-62 melanoma) was 7.15 µM and the TGI (UACC-62 melanoma) was 14.2 µM. It also gave a GI50 (SF-539 CNS) of 8.07 µM, a TGI (SF-539 CNS) of 15.4 µM and a GI50 (HOP-92 NSCLC) of 6.52 µM. The TGI (HOP-92 NSCLC) was 14.7 µM, the GI50 (SNB-19 CNS) was 7.62 µM and the TGI (SNB-19 CNS) was 14.8 µM. It also gave a GI50 (LOX IMVI melanoma) of 7.63 µM, a TGI (LOX IMVI melanoma) of 18.8 µM and a GI50 (CAKI-1 renal) of 2.94 µM. It also gave a TGI (CAKI-1 renal) of 10.7 µM, a GI50 (RXF 393 renal) of 5.63 µM and a TGI (RXF 393 renal) of 13.8 µM. The GI50 (SNB-75 CNS) was 5.98 µM, the TGI (SNB-75 CNS) was 13.6 µM and the GI50 (MCF7 breast) was 6.66 µM. The TGI (MCF7 breast) was 19.1 µM, the GI50 (BT-549 breast) was 6.03 µM and the TGI (BT-549 breast) was 13.4 µM. For the same molecule, the GI50 (MALME-3M melanoma) was 8.42 µM, the TGI (MALME-3M melanoma) was 16.1 µM and the GI50 (SK-OV-3 ovarian) was 8.08 µM. The TGI (SK-OV-3 ovarian) was 16.3 µM, the GI50 (HL-60(TB) leukemia) was 12.2 µM and the TGI (HL-60(TB) leukemia) was 39.3 µM. For the same molecule, the GI50 (SK-MEL-2 melanoma) was 8.01 µM, the TGI (SK-MEL-2 melanoma) was 15.8 µM and the GI50 (OVCAR-5 ovarian) was 7.47 µM. For the same molecule, the TGI (OVCAR-5 ovarian) was 14.7 µM, the GI50 (K-562 leukemia) was 10.7 µM and the TGI (K-562 leukemia) was 43.1 µM. For the same molecule, the GI50 (MDA-MB-468 breast) was 2.22 µM, the TGI (MDA-MB-468 breast) was 8.66 µM and the GI50 (NCI-H23 lung) was 8.25 µM. It also gave a TGI (NCI-H23 lung) of 16.7 µM, a GI50 (SR leukemia) of 5.57 µM and a TGI (SR leukemia) of 18.4 µM. It also gave a GI50 (SN12C renal) of 2.65 µM, a TGI (SN12C renal) of 9.49 µM and a GI50 (HCC-2998 colon) of 6.55 µM. For the same molecule, the TGI (HCC-2998 colon) was 14 µM, the GI50 (PC-3 prostate) was 4.08 µM and the TGI (PC-3 prostate) was 13.9 µM. For the same molecule, the GI50 (CCRF-CEM leukemia) was 7.57 µM, the TGI (CCRF-CEM leukemia) was 24.4 µM and the GI50 (A498 renal) was 7.26 µM. It also gave a TGI (A498 renal) of 15 µM, a GI50 (MOLT-4 leukemia) of 4.42 µM and a TGI (MOLT-4 leukemia) of 23.2 µM. The GI50 (HT29 colon) was 7.91 µM, the TGI (HT29 colon) was 17.6 µM and the GI50 (DU-145 prostate) was 9.39 µM. The TGI (DU-145 prostate) was 18 µM, the GI50 (UACC-257 melanoma) was 7.81 µM and the TGI (UACC-257 melanoma) was 15.5 µM. For the same molecule, the GI50 (SF-268 CNS) was 7.05 µM, the TGI (SF-268 CNS) was 17.1 µM and the GI50 (NCI-H522 lung) was 2.77 µM. The TGI (NCI-H522 lung) was 10.4 µM, the GI50 (NCI-H226 lung) was 5.1 µM and the TGI (NCI-H226 lung) was 14.9 µM. The GI50 (OVCAR-3 ovarian) was 5.35 µM, the TGI (OVCAR-3 ovarian) was 12.4 µM and the GI50 (MDA-MB-435) was 7.39 µM. For the same molecule, the TGI (MDA-MB-435) was 15.1 µM, the GI50 (NCI-H460 lung) was 6.91 µM and the TGI (NCI-H460 lung) was 15 µM. It also gave a GI50 (COLO 205 colon) of 8.67 µM, a TGI (COLO 205 colon) of 18.2 µM and a GI50 (RPMI-8226 leukemia) of 8.42 µM. The TGI (RPMI-8226 leukemia) was 47.7 µM, the GI50 (IGROV1 ovarian) was 4.56 µM and the TGI (IGROV1 ovarian) was 11.8 µM. The GI50 (OVCAR-4 ovarian) was 7.19 µM, the TGI (OVCAR-4 ovarian) was 16.4 µM and the GI50 (SF-295 CNS) was 6.63 µM. For the same molecule, the TGI (SF-295 CNS) was 14.1 µM, the GI50 (KM12 colon) was 7.73 µM and the TGI (KM12 colon) was 16.9 µM. The GI50 (TK-10 renal) was 7.34 µM, the TGI (TK-10 renal) was 15.2 µM and the GI50 (SW-620 colon) was 8.34 µM. The TGI (SW-620 colon) was 16.8 µM, the GI50 (SK-MEL-5 melanoma) was 9.09 µM and the TGI (SK-MEL-5 melanoma) was 17.1 µM. It also gave a GI50 (EKVX NSCLC) of 7.61 µM, a TGI (EKVX NSCLC) of 16.5 µM and a GI50 (T-47D breast) of 6.67 µM. For the same molecule, the TGI (T-47D breast) was 16.6 µM, the GI50 (MDA-MB-231 breast) was 6.39 µM and the TGI (MDA-MB-231 breast) was 13.3 µM. It also gave a GI50 (M14 melanoma) of 7.35 µM, a TGI (M14 melanoma) of 15.4 µM and a GI50 (U251 CNS) of 6.62 µM. It also gave a TGI (U251 CNS) of 13.9 µM, a GI50 (786-0 renal) of 8.4 µM and a TGI (786-0 renal) of 16.2 µM. It also gave a GI50 (A549 NSCLC) of 6.04 µM, a TGI (A549 NSCLC) of 13.6 µM and a GI50 (HS 578T breast) of 8.2 µM. It also gave a TGI (HS 578T breast) of 23.2 µM, a GI50 (UO-31 renal) of 6.07 µM and a TGI (UO-31 renal) of 12.8 µM. For the same molecule, the GI50 (SK-MEL-28 melanoma) was 8.02 µM and the TGI (SK-MEL-28 melanoma) was 15.4 µM.
